Test results from US20230372381A1, “COMPOSITIONS AND METHODS UTILIZING PROTEIN INHIBITORS FOR […] INHIBITION AND TREATMENT OF SARS-CoV-2” (Rensselaer Polytechnic Institute, priority 2020, published 2023).
Entries after “also recorded” stand apart in the source; their conditions may differ. Like-named read-outs stand apart in the source and are kept apart here.

Legend:
[1] = biological target: T1, SARS-CoV-2 M^pro (Severe acute respiratory syndrome coronavirus 2, UniProt P0DTD1); experiment: M^pro protease inhibition (FRET assay); format: biochemical; details: for Relative M^pro Inhibition: estimated IC50 class
[2] = biological target: SARS-CoV-2 PL^pro (Severe acute respiratory syndrome coronavirus 2, UniProt P0DTD1); experiment: PL^pro fluorescence proteolysis assay (zRLRGG/AMC substrate); format: biochemical; details: for Relative PL^pro Inhibition: estimated IC50 class
[3] = system: SARS-CoV-2; experiment: SARS-CoV-2 viral replication assay in Vero E6 cells; format: cell-based
[4] = system: SARS-CoV-2; experiment: microbe, parasite or virus in culture; format: cell-based
[5] = system: SARS-CoV-2; experiment: Combination antiviral (synergy) assay with remdesivir; format: cell-based; details: for Synergy Score: combination with remdesivir, SynergyFinder, ZIP method; for interaction with remdesivir (additive or synergistic): inhibition of SARS-CoV-2 replication in combination with remdesivir
[6] = biological target: T1, SARS-CoV-2 M^pro; experiment: M^pro 1D 1H-NMR proteolysis assay; format: biochemical; details: 50 μM inhibitor
[7] = in vitro; details: human
[8] = system: Vero E6 cells; experiment: Cytotoxicity MTT assay in Vero E6 cells; details: cytotoxicity, Vero E6 Cells
Experimental: (§1) Cytotoxicity was also performed using the MTT assay (Roche), according to the manufacturer's instructions. Cytotoxicity was performed in uninfected VeroE6 cells with same compound dilutions and concurrent with viral replication assay. All assays were performed in biologically independent triplicates.

[9] = in vitro; details: African green monkey
Experimental: as §1

[10] = Cytotoxicity in HEK 293T cells; details: human
[11] = system: HEK 293T cells; experiment: Cytotoxicity in HEK 293T cells; details: cytotoxicity, HEK 293T Cells
[12] = Cytotoxicity MTT assay in Vero E6 cells; details: African green monkey
Experimental: as §1

[13] = Severe acute respiratory syndrome coronavirus 2, Vero C1008, viral replication, Vero E6 Cells, read-out: IC50
[14] = Severe acute respiratory syndrome coronavirus 2, viral replication, HEK 293T Cells (hACE2-293T), read-out: IC50
[15] = Severe acute respiratory syndrome coronavirus 2, Vero C1008
[16] = Severe acute respiratory syndrome coronavirus 2, HEK-293T

Row | SMILES | inhibition of M^pro activity (words) [1] | Relative M^pro Inhibition [1] | inhibition of PL^pro protease activity (words) [2] | Relative PL^pro Inhibition [2] | IC50 [3, 13] [µM] | IC50 [4, 14] [µM] | Synergy Score [5] | interaction with remdesivir (additive or synergistic) [5] | M^pro inhibition in the NMR assay [6] | CC50 [7] [µM] | CC50 [8] [µM] | other results
1 | COc1ccc2c(O[C@@H]3C[C@H]4C(=O)N[C@]5(C(=O)NS(=O)(=O)C6CC6)C[C@H]5/C=C\CCCCN(C)C(=O)[C@@H]4C3)cc(-c3nc(C(C)C)cs3)nc2c1C [SIM, simeprevir] | moderately inhibit; also recorded: inhibited both M^pro and PL^pro | moderate (moderate to an estimated IC50 in the range 20-50 μM) | did inhibit PL^pro protease activity | strong (Strong inhibition corresponds to an estimated IC50 < about 20 μM) | 4.2 | 2.3 | +30.2 | synergistic | moderate inhibitors of M^pro | > 50 | 2.1 | interaction with remdesivir (additive or synergistic) ([5]; listed as simeprevir): synergized with remdesivir
2 | CC(C)(C)NC(=O)N[C@H](C(=O)N1C[C@H]2[C@@H]([C@H]1C(=O)NC(CC1CCC1)C(=O)C(N)=O)C2(C)C)C(C)(C)C (stereo partly drawn) [BOC, boceprevir] |  |  |  |  | 19.6 | 5.4 | −7.6 |  |  | > 50 |  | CC50 [9]: > 50 µM
3 | CC[C@@H]1C[C@]1(NC(=O)[C@@H]1C[C@@H]2CN1C(=O)[C@H](C(C)(C)C)NC(=O)OCC(C)(C)CCCCc1cccc3c1CN(C3)C(=O)O2)C(=O)NS(=O)(=O)C1CC1 [VAN, vaniprevir] |  | strong (Strong inhibition corresponds to an estimated IC50 < about 20 μM) |  | strong (Strong inhibition corresponds to an estimated IC50 < about 20 μM) |  |  | +10.9 | synergistic | inhibitory activity comparable to telaprevir |  | 4.3 | inhibition of M^pro activity (words) ([1]; listed as Vaniprevir): good inhibitor of both M^pro and PL^pro; inhibition of M^pro activity (words) ([1]; listed as vaniprevir): inhibited both M^pro and PL^pro; inhibition of PL^pro protease activity (words) ([2]; listed as Vaniprevir): good inhibitor of both M^pro and PL^pro; inhibition of PL^pro protease activity (words) ([2]; listed as vaniprevir): did inhibit PL^pro protease activity; IC50 [3, 15]: 6.2 µM; IC50 [4, 16]: 3 µM; interaction with remdesivir (additive or synergistic) ([5]; listed as vaniprevir): synergized with remdesivir; CC50 [10]: > 50 µM
4 | CCCC[C@H](NC(=O)[C@@H]1[C@@H]2[C@H](CN1C(=O)[C@@H](NC(=O)NC1(CS(=O)(=O)C(C)(C)C)CCCCC1)C(C)(C)C)C2(C)C)C(=O)C(=O)NC1CC1 [NAR, narlaprevir] |  |  |  |  |  |  | −3.6 |  |  |  |  | IC50 [3, 15]: 7.7 µM; IC50 [4, 16]: 15 µM; CC50 [11]: 72 µM; CC50 [12]: > 20 µM
5 | C=C[C@@H]1C[C@]1(NC(=O)[C@@H]1C[C@@H](Oc2ncc(OC)c3ccc(Cl)cc23)CN1C(=O)[C@@H](NC(=O)OC(C)(C)C)C(C)(C)C)C(=O)NS(=O)(=O)C1CC1 [asunaprevir] | moderately inhibit |  |  |  |  |  |  |  |  |  |  | 
6 | C=C[C@@H]1C[C@]1(NC(=O)[C@@H]1C[C@@H]2CN1C(=O)[C@H](C(C)(C)C)NC(=O)O[C@@H]1C[C@H]1CCCCCc1nc3ccc(OC)cc3nc1O2)C(=O)NS(=O)(=O)C1CC1.O [GRZ, grazoprevir] | moderately inhibit; also recorded: inhibited both M^pro and PL^pro | moderate (moderate to an estimated IC50 in the range 20-50 μM) | did inhibit PL^pro protease activity | moderate (moderate to an estimated IC50 in the range 20-50 μM) |  |  | +25.0 | synergistic | moderate inhibitors of M^pro |  | > 50 | IC50 ([3]; viral replication, Vero E6 Cells, read-out: IC50): 10.8 µM; IC50 ([4]; viral replication, HEK 293T Cells (hACE2-293T), read-out: IC50): 16.7 µM; interaction with remdesivir (additive or synergistic) ([5]; listed as grazoprevir): synergized with remdesivir; CC50 [11]: > 50 µM
7 | CC(=O)Nc1ccc(C)c(C(=O)N[C@H](C)c2cccc3ccccc23)c1 [Compound 6] | not M^pro |  | specifically inhibits PL^pro |  |  |  |  | synergy with remdesivir |  |  |  | 
8 | Cc1cnc(C(=O)N[C@H]2CCCCC/C=C\[C@@H]3C[C@@]3(C(=O)NS(=O)(=O)C3CC3)NC(=O)[C@@H]3C[C@@H](Oc4nc5ccccc5c5ccccc45)CN3C2=O)cn1 [PAR, paritaprevir] | not M^pro | none (none indicates no observed inhibition of protease activity at drug concentrations of 50 μM) | did inhibit PL^pro protease activity | moderate (moderate to an estimated IC50 in the range 20-50 μM) | 6 | 0.55 | +17.3 | synergistic |  | > 100 |  | interaction with remdesivir (additive or synergistic) ([5]; listed as paritaprevir): synergized with remdesivir; CC50 [9]: > 100 µM
